In the CheMixHub viscosity set:
“And” between values parts separate entries of the source, which are not always exact repeats. Identical values can stand only once.

Assay: xn = mol fraction of the nth substance listed

CCC[NH3+].O=[N+]([O-])[O-] + O
298 K, 101 kPa
Conditions | viscosity [mPa·s]
x2 = 0.1 | 50.56
x2 = 0.198 | 34.71
x2 = 0.294 | 24.59
x2 = 0.397 | 16.65
x2 = 0.494 | 11.43
x2 = 0.596 | 7.63
x2 = 0.696 | 5.02
x2 = 0.797 | 3.19
x2 = 0.9 | 1.86
x2 = 0.95 | 1.35

NC(CO)(CO)CO + O
Conditions | viscosity [mPa·s]
298.15 K, 101 kPa, x1 = 0.001 | 0.91
298.15 K, 101 kPa, x1 = 0.01 | 1.03
298.15 K, 101 kPa, x1 = 0.022 | 1.18
298.15 K, 101 kPa, x1 = 0.034 | 1.46
298.15 K, 101 kPa, x1 = 0.055 | 1.97
303 K, 101 kPa, x1 = 0.06 | 2.19
303.15 K, 101 kPa, x1 = 0.001 | 0.79
303.15 K, 101 kPa, x1 = 0.01 | 0.91
303.15 K, 101 kPa, x1 = 0.022 | 1.05
303.15 K, 101 kPa, x1 = 0.034 | 1.28
303.15 K, 101 kPa, x1 = 0.055 | 1.77
303.15 K, 101.33 kPa, x1 = 0.008 | 0.905
303.15 K, 101.33 kPa, x1 = 0.02 | 1.042
303.15 K, 101.33 kPa, x1 = 0.04 | 1.475
303.15 K, 101.33 kPa, x1 = 0.047 | 1.789
308.15 K, 101 kPa, x1 = 0.001 | 0.69
308.15 K, 101 kPa, x1 = 0.01 | 0.79
308.15 K, 101 kPa, x1 = 0.022 | 0.94
308.15 K, 101 kPa, x1 = 0.034 | 1.14
308.15 K, 101 kPa, x1 = 0.055 | 1.54
313 K, 101 kPa, x1 = 0.06 | 1.68
313.15 K, 101 kPa, x1 = 0.001 | 0.62
313.15 K, 101 kPa, x1 = 0.01 | 0.71
313.15 K, 101 kPa, x1 = 0.022 | 0.85
313.15 K, 101 kPa, x1 = 0.034 | 1.03
313.15 K, 101 kPa, x1 = 0.055 | 1.37
313.15 K, 101.33 kPa, x1 = 0.008 | 0.738
313.15 K, 101.33 kPa, x1 = 0.02 | 0.846
313.15 K, 101.33 kPa, x1 = 0.026 | 0.981
313.15 K, 101.33 kPa, x1 = 0.047 | 1.399
318.15 K, 101 kPa, x1 = 0.001 | 0.58
318.15 K, 101 kPa, x1 = 0.01 | 0.65
318.15 K, 101 kPa, x1 = 0.022 | 0.77
318.15 K, 101 kPa, x1 = 0.034 | 0.93
318.15 K, 101 kPa, x1 = 0.055 | 1.22
323 K, 101 kPa, x1 = 0.06 | 1.32
323.15 K, 101 kPa, x1 = 0.001 | 0.52
323.15 K, 101 kPa, x1 = 0.022 | 0.71
323.15 K, 101 kPa, x1 = 0.034 | 0.84
323.15 K, 101 kPa, x1 = 0.055 | 1.11
323.15 K, 101.33 kPa, x1 = 0.008 | 0.616
323.15 K, 101.33 kPa, x1 = 0.02 | 0.705
323.15 K, 101.33 kPa, x1 = 0.026 | 0.811
323.15 K, 101.33 kPa, x1 = 0.04 | 0.962
323.15 K, 101.33 kPa, x1 = 0.047 | 1.129

O=P(O)(O)OP(=O)(O)O + O
viscosity, 101 kPa
Conditions | 313 K | 323 K
x1 = 0.009 | 0.95 mPa·s and 0.8 mPa·s | –
x1 = 0.015 | 1.49 mPa·s and 1.2 mPa·s | –
x1 = 0.02 | 1.75 mPa·s | 1.39 mPa·s
x1 = 0.026 | 2.86 mPa·s | 2.38 mPa·s
x1 = 0.03 | 4.79 mPa·s and 3.85 mPa·s | –
x1 = 0.0306 | 3.76 mPa·s | 2.03 mPa·s
x1 = 0.04 | 5.82 mPa·s and 4.7 mPa·s | –
x1 = 0.045 | 7.65 mPa·s | 6.05 mPa·s
x1 = 0.051 | 9.8 mPa·s and 6.88 mPa·s | –
x1 = 0.055 | 10.9 mPa·s and 8.82 mPa·s | –
x1 = 0.062 | 15.6 mPa·s | 12.16 mPa·s

O=S(=O)(O)CCCN1CCOCC1 + O
viscosity [mPa·s], 101.3 kPa
Conditions | x1 = 0.003708 | x1 = 0.007256 | x1 = 0.009684 | x1 = 0.01083 | x1 = 0.01439 | x1 = 0.0179
298.15 K | 0.947 | 1.027 | 1.07 | 1.098 | 1.189 | 1.276
308.15 K | 0.765 | 0.826 | 0.863 | 0.886 | 0.963 | 1.03
318.15 K | 0.634 | 0.684 | 0.711 | 0.733 | 0.797 | 0.851

OCCC1CCCCN1 (centres undefined) + O
viscosity [mPa·s], 101.3 kPa
Conditions | x1 = 0.0153 | x1 = 0.0564 | x1 = 0.102 | x1 = 0.173 | x1 = 0.295
298.15 K | 1.426 | 3.959 | 9.631 | 24.9 | 89.03
313.15 K | 1.025 | 2.371 | 5.15 | 11.33 | 35.53

OC[C@H]1O[C@H](O[C@H]2O[C@H](CO)[C@@H](O)[C@H](O)[C@H]2O)[C@H](O)[C@@H](O)[C@@H]1O + O
298.15 K, 101 kPa
Conditions | viscosity [mPa·s]
x1 = 0.0009 | 0.935
x1 = 0.001798 | 0.982
x1 = 0.002695 | 1.032
x1 = 0.00359 | 1.084
x1 = 0.004484 | 1.139
x1 = 0.005375 | 1.197

O[C@H]1[C@H](O)[C@@H](O)[C@H](O)[C@@H](O)[C@H]1O + O
viscosity
Conditions | x1 = 0.0018 | x1 = 0.002 | x1 = 0.00359 | x1 = 0.004 | x1 = 0.005 | x1 = 0.00538 | x1 = 0.00715 | x1 = 0.00893
293.15 K, 101 kPa | 1.051 mPa·s | – | 1.102 mPa·s | – | – | 1.154 mPa·s | 1.23 mPa·s | 1.281 mPa·s
293.15 K, 101.3 kPa | – | 1.035 mPa·s | – | 1.086 mPa·s | 1.138 mPa·s | – | – | –
298.15 K, 101.3 kPa | – | 0.945 mPa·s | – | 0.986 mPa·s | 1.006 mPa·s | – | – | –
303.15 K, 101 kPa | 0.836 mPa·s | – | 0.875 mPa·s | – | – | 0.911 mPa·s | 0.97 mPa·s | 1.001 mPa·s and 1.011 mPa·s
303.15 K, 101.3 kPa | – | 0.821 mPa·s | – | 0.861 mPa·s | 0.899 mPa·s | – | – | –
313.15 K, 101 kPa | 0.685 mPa·s | – | 0.728 mPa·s | – | – | 0.742 mPa·s | 0.789 mPa·s | 0.82 mPa·s
323.15 K, 101 kPa | 0.577 mPa·s | – | 0.601 mPa·s | – | – | 0.618 mPa·s | 0.658 mPa·s | 0.684 mPa·s
